# Test results as given in US20140315886A1, “QUINAZOLINES AS THERAPEUTIC COMPOUNDS AND RELATED METHODS OF USE” (OTSUKA PHARMACEUTICAL CO., LTD., priority 2011, published 2014).
# Counter-ions that a name gives are not always drawn.
# Biological target: T1, purified STEP46 enzyme (Homo sapiens, UniProt P54829)
# T1 sequence (P54829 197-565 limits assumed): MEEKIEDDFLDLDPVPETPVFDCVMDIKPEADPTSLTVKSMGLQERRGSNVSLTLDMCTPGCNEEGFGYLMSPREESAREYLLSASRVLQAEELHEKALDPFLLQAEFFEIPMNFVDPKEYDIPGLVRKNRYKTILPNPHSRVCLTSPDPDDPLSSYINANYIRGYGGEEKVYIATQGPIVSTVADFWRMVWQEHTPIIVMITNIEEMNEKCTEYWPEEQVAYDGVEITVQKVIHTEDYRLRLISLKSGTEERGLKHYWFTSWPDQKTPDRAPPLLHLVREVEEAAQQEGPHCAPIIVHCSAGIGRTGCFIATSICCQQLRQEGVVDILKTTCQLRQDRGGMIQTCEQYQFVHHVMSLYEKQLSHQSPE
# Assay: STEP46 biochemical assay (DiFMUP fluorescence phosphatase assay)
# Details: DiFMUP 10 μM, read-out: STEP IC50
# Summary of the method: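 Purified human STEP46 preincubated 30 min at room temperature with compounds in Hepes/DTT/Brij35 buffer (2% DMSO final), then reacted with 10 μM DiFMUP for 90 min at 27°C; fluorescence read at 360/460 nm. IC50 from four-parameter fit; activation shown as negative % inhibition at 25, 50, 100 uM.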
row,Compound,IC50
1,CNc1nc(-c2cnccn2)nc2cc(-c3ccc(F)cc3)ccc12 [Compound 393],1000 to 10000 nM
2,CNc1nc(-c2cnccn2)nc2cc(-c3ccc(F)cc3F)ccc12 [Compound 395],1000 to 10000 nM
3,CNc1nc(-c2cnccn2)nc2cc(-c3cc(F)ccc3F)ccc12 [Compound 396],1000 to 10000 nM
4,CNc1nc(-c2cnccn2)nc2cc(-c3ccc(F)c(F)c3)ccc12 [Compound 397],1000 to 10000 nM
5,CNc1nc(-c2cnccn2)nc2cc(-c3cc(F)cc(F)c3)ccc12 [Compound 398],1000 to 10000 nM
6,CNc1nc(-c2cccnc2)nc2cc(OC(F)(F)F)c(-c3cccc(F)c3F)cc12 [Compound 404],1000 to 10000 nM
7,FCCNc1nc(-c2cccnc2)nc2ccc(-c3cccc(F)c3F)cc12 [Compound 406],> 10000 nM
8,Fc1ccc(-c2ccc3nc(-c4cccnc4)nc(N4CCC4)c3c2)c(F)c1 [Compound 411],1000 to 10000 nM
9,COC1CN(c2nc(-c3cccnc3)nc3ccc(-c4ccc(F)cc4F)cc23)C1 [Compound 413],1000 to 10000 nM
10,Fc1ccc(-c2ccc3nc(-c4cccnc4)nc(N4CC(F)(F)C4)c3c2)c(F)c1 [Compound 415],> 10000 nM
11,Fc1ccc(-c2ccc3nc(-c4cccnc4)nc(-c4nccs4)c3c2)c(F)c1 [Compound 416],< 1000 nM
12,Fc1ccc(-c2ccc3nc(-c4cccnc4)nc(-c4cncs4)c3c2)c(F)c1 [Compound 417],< 1000 nM
13,NC(=O)C1CN(c2nc(-c3cccnc3)nc3ccc(-c4ccc(F)cc4F)cc23)C1 [Compound 419],1000 to 10000 nM
14,Fc1ccc(-c2ccc3nc(-c4cccnc4)nc(N4CC(n5cccn5)C4)c3c2)c(F)c1 [Compound 420],> 10000 nM
15,"Fc1ccc(-c2ccc3nc(-c4cccnc4)nc(-c4cscn4)c3c2)c(F)c1 [Compound 421, 4-(6-(2,4-difluorophenyl)-2-(pyridin-3-yl)quinazolin-4-yl)thiazole]",< 1000 nM
16,Cc1noc(C)c1-c1nc(-c2cccnc2)nc2ccc(-c3ccc(F)cc3F)cc12 [Compound 422],1000 to 10000 nM
17,CNC(=O)C1CN(c2nc(-c3cccnc3)nc3ccc(-c4ccc(F)cc4F)cc23)C1 [Compound 423],1000 to 10000 nM
18,Fc1ccc(-c2ccc3nc(-c4cccnc4)nc(-c4ncco4)c3c2)c(F)c1 [Compound 425],1000 to 10000 nM
19,Fc1ccc(-c2ccc3nc(-c4cccnc4)nc(Nc4ccc(F)cn4)c3c2)cc1 [Compound 436],1000 to 10000 nM
20,Fc1ccc(-c2ccc3nc(-c4cccnc4)nc(Nc4ccccn4)c3c2)cc1 [Compound 437],1000 to 10000 nM
21,Fc1ccc(-c2ccc3nc(-c4cccnc4)nc(Nc4cccc(F)n4)c3c2)cc1 [Compound 439],1000 to 10000 nM
22,Fc1ccc(-c2ccc3nc(-c4cccnc4)nc(Nc4cncc(F)c4)c3c2)cc1 [Compound 440],1000 to 10000 nM
23,Cc1ccc(Nc2nc(-c3cccnc3)nc3ccc(-c4ccc(F)cc4)cc23)nc1 [Compound 441],1000 to 10000 nM
24,Fc1ccc(-c2ccc3nc(-c4cccnc4)nc(Nc4cc(F)ccn4)c3c2)cc1 [Compound 442],1000 to 10000 nM
25,Fc1ccc(-c2ccc3nc(-c4cccnc4)nc(N4CCc5cccnc54)c3c2)cc1 [Compound 443],1000 to 10000 nM
26,Cc1ccc2c(c1)N(c1nc(-c3cccnc3)nc3ccc(-c4cccc(F)c4F)cc13)CC2 [Compound 446],1000 to 10000 nM

row,Compound,IC50
1,CNc1nc(-c2cccnc2)nc2ccc(-c3cccc(C(=O)Nc4nncs4)c3)cc12 [Compound 447],< 1000 nM
2,CNc1nc(-c2cccnc2)nc2ccc(-c3cccc4c3CNC4=O)cc12 [Compound 450],1000 to 10000 nM
3,CNc1nc(-c2cccnc2)nc2cc(-c3c(F)ccc(F)c3F)ccc12 [Compound 453],1000 to 10000 nM
4,CNc1nc(-c2cccnc2)nc2cc(-c3c(F)cc(F)cc3F)ccc12 [Compound 454],1000 to 10000 nM
5,CNc1nc(-c2cccnc2)nc2cc(-c3c(F)cccc3F)ccc12 [Compound 455],1000 to 10000 nM
6,CNc1nc(-c2cccnc2)nc2ccc(-c3c(F)ccc(F)c3F)cc12 [Compound 456],1000 to 10000 nM
7,CNc1nc(-c2cccnc2)nc2ccc(-c3c(F)cc(F)cc3F)cc12 [Compound 457],1000 to 10000 nM
8,CNc1nc(-c2cccnc2)nc2ccc(-c3c(F)cccc3F)cc12 [Compound 458],1000 to 10000 nM
9,CNc1nc(-c2cccnc2)nc2ccc(-c3ccc4oc(=O)[nH]c4c3)cc12 [Compound 462],< 1000 nM
10,CNc1nc(-c2cccnc2)nc2ccc(-c3cnc(-c4ccccc4)s3)cc12 [Compound 464],> 10000 nM
11,CNc1nc(-c2cccnc2)nc2ccc(-c3nnc(-c4ccccc4)s3)cc12 [Compound 466],1000 to 10000 nM
12,CNc1nc(-c2cccnc2)nc2ccc(-c3ccc4c(c3)N(C)C(=O)CO4)cc12 [Compound 467],1000 to 10000 nM
13,CNc1nc(-c2cccnc2)nc2ccc(-c3ccc4c(c3)NC(=O)CO4)cc12 [Compound 469],< 1000 nM
14,CNc1nc(-c2cccnc2)nc2ccc(-c3ccc4c(c3)oc(=O)n4C)cc12 [Compound 470],< 1000 nM
15,CNc1nc(-c2cccnc2)nc2ccc(-c3ccc4c(c3)SCC(=O)N4)cc12 [Compound 471],1000 to 10000 nM
16,CNc1nc(-c2cccnc2)nc2ccc(-c3nnc(C)s3)cc12 [Compound 472],> 10000 nM
17,CNc1nc(-c2cccnc2)nc2ccc(-c3cccc(-c4nccs4)c3)cc12 [Compound 473],< 1000 nM
18,CNc1nc(-c2cccnc2)nc2ccc(-c3cccc4[nH]c(=O)oc34)cc12 [Compound 475],< 1000 nM
19,CNc1nc(-c2cccnc2)nc2ccc(-c3cccc4oc(=O)[nH]c34)cc12 [Compound 476],< 1000 nM
20,CNc1nc(-c2cccnc2)nc2ccc(-c3cc4[nH]c(=O)oc4cc3F)cc12 [Compound 477],< 1000 nM
21,CNc1nc(-c2cccnc2)nc2ccc(-c3ccc4c(c3)C(=O)NCCO4)cc12 [Compound 479],1000 to 10000 nM
22,CNc1nc(-c2cccnc2)nc2ccc(-c3ccc(F)cc3F)c(OC)c12 [Compound 487],1000 to 10000 nM
23,CNc1nc(-c2cccnc2)nc2ccc(-c3cc(F)cc(F)c3)c(OC)c12 [Compound 488],> 10000 nM
24,"CNc1nc(-c2cccnc2)nc2c(-c3cccc(C#N)c3)ccc(OC)c12 [Compound 489, 3—(5-methoxy-4-(methylamino)-2-(pyridin-3-yl)quinazolin-8-yl)benzonitrile dihydrochloride]",1000 to 10000 nM
25,CNc1nc(-c2cccnc2)nc2c(-c3ccc(F)cc3F)ccc(OC)c12 [Compound 490],1000 to 10000 nM
26,CNc1nc(-c2cccnc2)nc2c(-c3cc(F)cc(F)c3)ccc(OC)c12 [Compound 491],1000 to 10000 nM

row,Compound,IC50
1,CNc1nc(-c2cccnc2)nc2c(-c3cccc(F)c3F)ccc(OC)c12 [Compound 492],1000 to 10000 nM
2,CNc1nc(-c2cccnc2)nc2c(-c3ccc(F)c(F)c3)ccc(OC)c12 [Compound 496],1000 to 10000 nM
3,CNc1nc(-c2cccnc2)nc2c(-c3cc(F)ccc3F)ccc(OC)c12 [Compound 497],1000 to 10000 nM
4,CNc1nc(-c2cccnc2)nc2c(-c3cc(F)cc(OC)c3)ccc(OC)c12 [Compound 498],1000 to 10000 nM
5,CNc1nc(-c2cccnc2)nc2c(F)c(-c3ccc(F)cc3)ccc12 [Compound 505],1000 to 10000 nM
6,CNc1nc(-c2cccnc2)nc2c(F)c(-c3cccc(F)c3)ccc12 [Compound 510],1000 to 10000 nM
7,CNc1nc(-c2cccnc2)nc2c(F)c(-c3cccc(C#N)c3)ccc12 [Compound 511],1000 to 10000 nM
8,CNc1nc(-c2cccnc2)nc2c(F)c(-c3ccc(C#N)cc3)ccc12 [Compound 512],< 1000 nM
9,CNc1nc(-c2cccnc2)nc2c(F)c(-c3ccccc3F)ccc12 [Compound 513],1000 to 10000 nM
10,CNc1nc(-c2cccnc2)nc2c(F)c(-c3cc(F)ccc3F)ccc12 [Compound 514],1000 to 10000 nM
11,CNc1nc(-c2cccnc2)nc2c(F)c(-c3cccc(F)c3F)ccc12 [Compound 515],1000 to 10000 nM
12,CNc1nc(-c2cccnc2)nc2c(F)c(-c3cc(F)cc(F)c3)ccc12 [Compound 516],< 1000 nM
13,CNc1nc(-c2cccnc2)nc2c(F)c(-c3ccc(F)c(F)c3)ccc12 [Compound 517],1000 to 10000 nM
14,CNc1nc(-c2cccnc2)nc2c(F)c(-c3ccc(OC)cc3)ccc12 [Compound 518],1000 to 10000 nM
15,CNc1nc(-c2cccnc2)nc2c(F)c(-c3ccncc3)ccc12 [Compound 519],1000 to 10000 nM
16,CNc1nc(-c2cccnc2)nc2c(F)c(-c3cc(F)c(F)c(F)c3)ccc12 [Compound 520],< 1000 nM
17,CNc1nc(-c2cccnc2)nc2c(F)c(-c3ccc(F)c(F)c3F)ccc12 [Compound 521],1000 to 10000 nM
18,CNc1nc(-c2cccnc2)nc2c(F)c(-c3cc(F)c(F)cc3F)ccc12 [Compound 522],1000 to 10000 nM
19,CNc1nc(-c2cccnc2)nc2c(F)c(-c3cc(F)cc(F)c3F)ccc12 [Compound 523],< 1000 nM
20,CNc1nc(-c2cccnc2)nc2c(F)c(-c3ccco3)ccc12 [Compound 524],1000 to 10000 nM
21,CNc1nc(-c2cccnc2)nc2c(F)c(-c3cccc(C)c3)ccc12 [Compound 525],1000 to 10000 nM
22,CNc1nc(-c2cccnc2)nc2c(F)c(-c3ccc(C)cc3)ccc12 [Compound 526],1000 to 10000 nM
23,CNc1nc(-c2cccnc2)nc2c(F)c(-c3ccsc3)ccc12 [Compound 527],1000 to 10000 nM
24,CNc1nc(-c2cccnc2)nc2c(F)c(-c3ccc(C(F)(F)F)cc3)ccc12 [Compound 528],1000 to 10000 nM
25,CNc1nc(-c2cccnc2)nc2c(F)c(-c3ccc4sccc4c3)ccc12 [Compound 529],1000 to 10000 nM
